For orientation: melting point means the temperature of the solid-liquid transition.

Where only a bound is given, the exact number is not on record here.

Regarding `COc1cc2c(cc1N1CCN(CC3Cc4ccccc4C3)CC1)OCCO2`, the melting point fell in the range of 176 to 178 °C.

On to `CCCCCCCCCCCCCCCCCC(=O)Oc1ccccc1C(=O)OCC`, for which the melting point fell in the range of 50.5 to 53.5 °C.

As to `CCOc1ccc(-c2ncc(C#N)cn2)cc1`, the melting point turned out to be 153 °C.

Compound `Cc1cc2ncnn2nc1OCC(CS(N)(=O)=O)C(C)C` (stereo unspecified) yielded a melting point of 196 to 197 °C.

Turning to `Fc1cccc(C2OC3(CCNCC3)N3CCCCC23)c1` (stereo unspecified), the melting point lay in the range of 133 to 135 °C.

Consider `C=C(CCCCCCCCCCCCCCCC)CC(CO)CO`, for which the melting point lay in the range of 64 to 65 °C.

The compound `Cc1ccccc1-c1ccc2c(c1)CN(CCNC(=O)C1CCCC1)C(N)=N2` displayed a melting point of 43 to 46 °C.

With `CC(=O)n1nc(C)c2ccc(F)cc21`, the melting point lay in the range of 89 to 91 °C.

For the compound `COC(=O)C=C(Nc1cc(CCCl)c([N+](=O)[O-])cc1OCc1ccccc1)C(F)(F)F`, the melting point is 105 to 110 °C.

Take `CNC1(C)CN(c2cc3c(cc2F)c(=O)c2c(=O)[nH]sc2n3C2CC2)C1`: the melting point lay in the range of 286 to 290 °C.

In turn, `O=c1cc(-c2ccccc2)oc2ncccc12` showed a melting point of 103 to 105 °C.

For the compound `Cc1ccccc1C(=O)c1ccccc1C`, the melting point was 66 to 67 °C.

Consider `CC1(C)Oc2ccc(C#N)cc2[C@@H](N2CCN(c3ccccc3)C2=O)[C@@H]1O` (relative stereo), for which the melting point lay in the range of 205 to 206 °C.

`COc1ccccc(NS(=O)(=O)c2ccc(C)cc2)c1=O` gave a melting point of 163 to 164 °C.

Regarding `CCCCCCCCCCCCCCCCCCC(=O)Nc1ccn(C2OC(CO)C(O)C2O)c(=O)n1` (stereo unspecified), the melting point lay in the range of 139 to 142 °C.

Compound `NC(=O)c1ccc(COc2cccc3c2CN(C2CCC(=O)NC2=O)C3=O)cc1` (stereo unspecified) registered a melting point of 278 to 280 °C.

For `NC(=O)c1ccc(F)c2c1C=CCO2`, the melting point is 189 to 190 °C.

For the compound `CC(C)(Oc1ccc(Cl)cc1)C(=O)OCc1ncc(C(=O)O)s1`, the melting point is 124 °C.

In turn, `N=C(N)N(C[C@H]1CC[C@H](C(=O)Nc2ccnc3[nH]ccc23)CC1)C(=O)OCc1ccccc1` had a melting point of 160 to 162 °C.

On to `O=C(c1ccccc1)N1CCOC(CCOS(=O)(=O)c2ccccc2)(c2ccc(F)c(F)c2)C1` (single isomer, unassigned; (+)), for which the melting point is 82.8 °C.

`CC(C)(C)c1cc(C[Si](C)(C)C)cc(C(C)(C)C)c1S` gave a melting point of 100 to 101 °C.

The compound `Cc1c(N)c(C)c2c(c1CCCO)OCC2c1ccc(C(C)C)cc1` (stereo unspecified) displayed a melting point of 110 to 111 °C.

Compound `COc1ccc(C23CCCC2(c2ccc(OC)cc2)C3)cc1` (stereo unspecified) yielded a melting point of 92 to 93 °C.

For the compound `Cc1cc(F)ccc1-c1cc(-c2ccccc2)nc(C(C)C)c1C=O`, the melting point is 110 to 112 °C.

`O=C(Nc1ccccc1)n1[nH]c(C(F)(F)F)cc1=O` came in with a melting point of 109 to 110 °C.

Consider `Cc1ccc(C)c(NC(=O)N2CCC(C#N)CC2)c1`, for which the melting point is 187 to 190 °C.

Regarding `CC1(C)COC(c2cc(I)cc(C(F)(F)F)c2)=N1`, the melting point lay in the range of 73 to 74.5 °C.

Regarding `O=C1C[C@@H]2[C@@H](/C=C/[C@@H](O)COc3cccc(Cl)c3)[C@H](OC(=O)c3ccccc3)C[C@@H]2O1`, the melting point was in the range of 101 to 102 °C.

Compound `COc1cc2ncnc(N3CCC(CI)CC3)c2cc1OC` showed a melting point of 180 to 182 °C.

Consider `CCCCc1nc(C(F)(F)F)c(C(=O)OCC)n1O`, for which the melting point was in the range of 77.5 to 80.5 °C.

For the compound `Cc1ccc(-c2ccccc2-c2n[nH]c(=O)n2C)cc1`, the melting point is 181 to 182 °C.

In turn, `CCCCCCCC(=O)CCCCCC(=O)N[C@@H](C)C(=O)O` had a melting point of 84 to 86 °C.

Take `CCCCC1Oc2cc(C(=O)OC)ccc2NC1=O` (stereo unspecified): the melting point is 139 to 140 °C.

Regarding `C=C1CC2(CC)C(=O)CC(O)C2C2CCC3=CC(=O)CCC3C12` (stereo unspecified), the melting point turned out to be 228 °C.

The compound `Cc1ccccc1CC(C(=O)Nc1nc2cc(Cl)ccc2o1)c1ccc(S(C)(=O)=O)cc1` (stereo unspecified) returned a melting point of 184 to 185 °C.

Turning to `Cc1c(N2CCC(N)C2)c(F)cc2c(=O)c(C(=O)O)cn(C3COC3)c12` (stereo unspecified), the melting point was above 230 °C.

`COc1ccc2c(c1)c(Cc1cc(=O)n(-c3cccc(NC(C)=O)c3)[nH]1)c(C)n2C(=O)c1ccc(Cl)cc1` yielded a melting point of 124 to 126 °C.

Regarding `OCc1ccc2ccn(C3CCN(CCc4ccccc4F)CC3)c2c1`, the melting point fell in the range of 117 to 118 °C.

Compound `Cc1cc(Oc2ncc(C(F)(F)F)cc2Cl)nn1C(=O)Nc1cccc(Cl)c1` registered a melting point of 129 to 130 °C.

Regarding `CCOC(=O)c1c(C(F)(F)F)nc(C(F)F)c(C(=O)OC)c1N1CC1`, the melting point lay within 92 to 95 °C.

With `NC(=O)c1ccc(OCCn2ccnc2)cc1`, the melting point fell in the range of 148 to 149 °C.

`CC(C)(NCC(O)Cn1ccnc1)c1ccc(Cl)cc1` (stereo unspecified) gave a melting point of 89 to 91 °C.

For the compound `COc1cc2scc(C(=O)Nc3cccnc3)c2cc1Br`, the melting point is 160 to 161 °C.

`CC(C)CCc1ccc(C(=S)CC#N)cc1` showed a melting point of 62 to 63 °C.

Take `CCOCc1nc2c(N)nc3cc(N4CCCCS4(=O)=O)ccc3c2n1CCCOC(C)C`: the melting point fell in the range of 172 to 174 °C.

The compound `COc1cc(C(=O)O)ccc1Cc1cn(C)c2ccc(CC3CCN(C)C3=O)cc12` (stereo unspecified) returned a melting point of 232 to 233 °C.

Turning to `CC(=O)c1cc(C(F)(F)F)cc(S(N)(=O)=O)c1`, the melting point lay within 157 to 159 °C.

As for `CC(=O)NC[C@H]1CN(c2ccc(N3CCN(C(=O)CCC(=O)c4ccc(Cl)cc4)CC3)c(F)c2)C(=O)O1`, the melting point was 208 to 209 °C.

For `CSc1nc2c([nH]1)N(Cc1ccc(Cl)cc1)C1NCCN1C2=O` (stereo unspecified), the melting point was in the range of 296 to 297 °C.

For the compound `CCOC(=O)c1c(N2CCN(C(=O)c3cccs3)CC2)c2cccnc2n(Cc2cccc(F)c2)c1=O`, the melting point lay in the range of 105 to 110 °C.

Consider `COCC1OC(n2cnc3c(NCc4cccc(I)c4)nc(Cl)nc32)C(O)C1O` (stereo unspecified), for which the melting point lay within 84 to 86 °C.

In turn, `N#Cc1nc2ccccc2[nH]1` gave a melting point of 268 °C.

Compound `Cc1cccc2c(-c3ccc(Cl)cc3Cl)onc12` returned a melting point of 94 to 95 °C.

Regarding `COC(=O)[C@@H]1C[C@H](Oc2cc(-c3nc(C(C)C)cs3)nc3c(C)c(OC)ccc23)C[C@H]1C(=O)O`, the melting point came out at 135 °C.

`Cn1cc(C(=O)O)cc1Cl` displayed a melting point of 201 to 203 °C.

Take `Cc1ccc(-c2ccc(C(=O)Nc3ccc4nc(CN5C(C)(C)CCCC5(C)C)ccc4c3)cn2)cc1`: the melting point lay in the range of 246 to 247 °C.

For the compound `COc1cc(CC(=O)O)cc2c1NC(C(F)(F)F)CC2` (stereo unspecified), the melting point was in the range of 108 to 109 °C.

Regarding `Nc1nc(Cl)cc(Oc2ccc3[nH]ccc3c2)n1`, the melting point is 192 °C.

As to `N#CCc1ccc(OC(F)F)c(OC2CCCC2)c1`, the melting point was 39 to 41 °C.

`CSc1nccc(-c2cc(C)ccc2NC(=O)C(C)C)n1` returned a melting point of 134 to 135 °C.

As to `Cc1ccc2c(c1)/C(=N\NC(N)=O)C(=O)N2CCN(C(C)C)C(C)C`, the melting point lay within 159 to 161 °C.

For the compound `O=[N+]([O-])c1cc(F)ccc1OCCCCl`, the melting point was found to be 143 °C.

Take `O=C1C(=O)N2CCOc3c(Cl)c(Cl)cc1c32`: the melting point lay in the range of 237 to 238 °C.

For the compound `Cc1cc(-c2nc3cccnn3c2-c2ccnc(NC(=O)c3cccnc3C)c2)ccc1F`, the melting point was 258 to 259 °C.

As to `NNC(=O)c1ccccc1-c1ccc(N)cc1`, the melting point fell in the range of 135 to 137 °C.

As to `Cc1ccc2c(C(C)C(N)=O)ccc(C(C)C)cc1-2` (stereo unspecified), the melting point lay within 149 to 152 °C.

Compound `CS(=O)(=O)c1ccc(-c2cccn2-c2ccc(F)cc2F)cc1` returned a melting point of 122 to 125 °C.

Compound `CCOC(=O)c1cnc(-c2ccccc2OCC(C)C)[nH]c1=O` gave a melting point of 89 to 91 °C.

`CCC[C@H](CO)Nc1nc(-c2ccc(Br)cc2)cs1` yielded a melting point of 61 to 63 °C.

`CN1C(=O)C(c2ccccc2)Oc2cccc3nc4c(c1c23)CCCC4` (stereo unspecified) showed a melting point of 188 to 189 °C.

Regarding `O=C(O)c1cnc2n(c1=O)CCc1cc(O)c(O)cc1-2`, the melting point fell in the range of 308 to 314 °C.

The compound `CCCC(=NOCC)C1=C(O)CC(c2ccc(S(C)=O)cc2)CC1=O` (stereo unspecified) registered a melting point of 72 to 74 °C.

Consider `COc1ccc(C(=O)Nc2cccc3c2CCN(C)C3)cc1`, for which the melting point was in the range of 170 to 172 °C.

Turning to `COC(=O)COc1ccc2cc(CNC(=O)c3cnn(-c4ccc(Cl)cc4)c3C(F)(F)F)ccc2c1`, the melting point fell in the range of 174 to 176 °C.

Consider `CC#CC(=O)Nc1ccc(-n2nc(C(F)(F)F)cc2C(F)(F)F)cc1`, for which the melting point was 220 to 221 °C.

Regarding `COC(=O)N1CCC(c2n[nH]c3cc(Cl)ccc23)CC1`, the melting point was 132 to 134 °C.

As to `O=C1OC(=O)c2cc(Oc3ccc(C(F)(F)F)cc3Cl)ccc21`, the melting point lay within 88 to 91 °C.

Turning to `Cc1cc(-c2cc(C(F)(F)F)n3ncc(C(=O)Nc4cccc(S(N)(=O)=O)c4)c3n2)ccc1C(F)(F)F`, the melting point was determined as 245 °C.

Regarding `Cc1c(Br)c2cnnc(Cl)c2n1Cc1ccccc1`, the melting point lay in the range of 138 to 140 °C.

In turn, `O=C(O)c1c[nH]c(Sc2cc(Cl)cc(Cl)c2)c1` showed a melting point of 169 to 172 °C.

`COc1ccc(S(=O)(=O)n2c(=O)[nH]c3cc(Cl)ccc3c2=O)cc1OC` returned a melting point above 250 °C.

`Cn1ncc2c(=O)n3c(nc21)SC(c1ccccc1)C3c1ccccc1` (stereo unspecified) yielded a melting point of 159 °C.

Take `COc1ccc(-c2ccc3nnn(Cc4ccc5ncccc5c4)c3n2)cc1`: the melting point lay within 144 to 146 °C.

For the compound `FC(F)(F)c1n[nH]c(-c2nc3ccccc3s2)n1`, the melting point amounted to 254 °C.

As for `c1ccc(COc2ccc(CCCCn3cncn3)cc2)cc1`, the melting point fell in the range of 68 to 69 °C.

Compound `CC(CO)C1CCC2C3C=CC4=CC(=O)C5OC5C4(C)C3CCC12C` (stereo unspecified) came in with a melting point of 158 to 161 °C.

Consider `COc1cc(OC)c2c(=O)[nH]c(-c3cc(C)c(OCCCCN4CCCC4)c(C)c3)nc2c1`, for which the melting point fell in the range of 180 to 181 °C.

On to `Cc1ccc2cccc(OCc3c(Cl)ccc(C=O)c3Cl)c2n1`, for which the melting point was 184 to 186 °C.

Turning to `CC(=C1C(=O)N(c2cccc(C)c2)c2ccccc21)N(C)C`, the melting point was in the range of 96 to 99 °C.

`Clc1cccc(N2CCN(Cc3ccc(-c4ccccc4)s3)CC2)c1`: the melting point is 115 °C.

The compound `Cc1ccc(Cn2c(NC3CCN(CC#N)CC3)nc3ccccc32)o1` gave a melting point of 177 °C.

The values are drawn from a melting point compilation (Tetko et al.; mined from patent text by program, amines drawn as free bases though some values may be those of a salt).
